Test results published in patent US8357350B2, “Annulus fibrosus detection in intervertebral discs using molecular imaging agents” (General Electric Company, priority 2009, dated 2013).

Columns and labels:
[1] = Absorbance and fluorescence spectra of FM fluorophores in solvents; assay type: physicochemical; conditions: for Em nm (MeOH): emission maximum in MeOH; for Em nm (PBS): emission maximum in PBS; for Ex nm (MeOH): excitation maximum in MeOH; for Ex nm (PBS): excitation maximum in PBS
Description: (§1) Absorbance and fluorescence spectra of the FM fluorophores were measured in PBS and absolute methanol (MeOH) using fiber-optic HR2000 (200-1100 nm) and USB2000FL (350-1000 nm) spectrometers (Ocean Optics, Dunedin, Fla.), respectively. Fluorescence excitation was provided by a 2 mW, 532 nm laser diode. The fluorescence and absorbance spectra of FORMULA II and FORMULA IA were collected in dimethyl sulfoxide (DMSO) and fetal bovine serum (FBS), as well as MeOH and PBS. The quantum yield of FORMULA II and FORMULA IA in DMSO, MeOH, FBS and PBS was measured by comparing the integrated fluorescence emission of the fluorophores in each solvent to the emission of Alexa Fluor 555 (Invitrogen) in PBS (quantum yield=10%) as a reference standard under conditions of matched absorbance at the excitation wavelength. The LogD of each FM fluorophore at pH 7.5 was calculated using Marvin 5.0.3 software (ChemAxon, Budapest, Hungary).

[2] = Fluorescence quantum yield versus Alexa Fluor 555 reference; assay type: physicochemical; conditions: highest in FBS among DMSO, MeOH, PBS
Description: as §1

trigeminal ganglia = experiment: FM fluorophore uptake, intraoperative fluorescence imaging; assay type: in vivo, mice and rats; conditions: 5 mg/kg mice, 0.5 mg/kg rats IP, 16 hours before imaging; signal normalized to muscle, vs vehicle control; also: key: +: Positive contrast was concluded if the nerve-to-muscle contrast ratio of FM fluorophore-injected animals was elevated relative to control animals
Description: (§2) Imaging was carried out at near infrared wavelenghts using a 400- to 700-nm “white” light (0.5 mW/cm^2) and a 725- to 775-nm NIR fluorescence excitation light (5 mW/cm^2). Fluorescence images were collected using exposure times ranging from 500 to 2000 msec. All images collected for comparison between vehicle-injected control animals and FM fluorophore-injected animals had the same exposure time and normalization. Color video images were collected on a separate optical channel using custom designed software. The excitation and emission LEDs and filter used for the FM fluorophores and Pam800 in the intraoperative imaging system are described as follows. For fluorescence excitation of FM 1-43, FM 2-10, FM 1-43FX and Formula IA, sixty 5-mm 470 nm LEDs ([…], Inc., Kyoto, Japan) fitted with 470±20 nm band pass (BP) excitation filters (Chroma Technology, Rockingham, Vt.) in custom holders were used, which produced a fluence rate on the imaging surface of 0.56 mW/cm^2. For fluorescence excitation of Formula II, FM 4-64, FM 4-64FX and FM 5-95, sixty 5-mm 535 nm LEDs fitted with 525±25 nm BP excitation filters were used, which produced a fluence rate on the imaging surface of 0.34 mW/cm^2. A 610±38 nm BP filter was used to detect fluorescence emission of FM 1-43, FM 2-10, Formula II, FM 1-43FX and Formula IA. To detect fluorescence emission of FM 4-64, FM 4-64FX and FM 5-95 a 720 nm long pass (LP) filter was used. For fluorescence excitation of Pam800, 348 5-mm 760 nm LEDs fitted with 764±17 nm BP excitation filters were used, which produced a fluence rate on the imaging surface of 8.73 mW/cm^2 and fluorescence emission was detected using a 824±24 nm BP emission filter. To assess the structure-activity relationship of the FM fluorophores, each molecule was administered at 5 mg/kg to mice and 0.5 mg/kg to rats (n=4 per group) in 10% DMSO and 90% PBS IP 16 hours before imaging with the intraoperative system. The fluorescence signal from the spinal cord, intervertebral discs, dorsal root ganglia, trigeminal ganglia, optic nerve, brain and femoral nerve were normalized to muscle signal in the same image. This normalization ratio was then compared between FM fluorophore-injected animals and vehicle-injected control animals.

dorsal root ganglia [3] = experiment: as above; assay type: in vivo, mice and rats; conditions: 5 mg/kg mice, 0.5 mg/kg rats IP, 16 hours before imaging; signal normalized to muscle, vs vehicle control
Description: as §2

intervertebral discs = experiment: as above; assay type: in vivo, mice and rats; as to Uptake: Intervertebral Disc: key: +: Positive contrast was concluded if the nerve-to-muscle contrast ratio of FM fluorophore-injected animals was elevated relative to control animals
Description: as §2

dorsal root ganglia [4] = experiment: Histology and fluorescence microscopy of dorsal root ganglia; assay type: in vivo; conditions: rat, 0.5 mg/kg, 16 h post-IP
Description: Tissues from mice, rats and pig were preserved for microscopic assessment and localization of fluorescence signal. Tissues were extracted from the animal and placed in 2% paraformaldehyde in PBS for 2 to 4 hours before mounting in Tissue-Tek OCT compound (Fisher Scientific, Pittsburgh, Pa. ) and flash-freezing in liquid nitrogen. Each sample was cryo-sectioned (12 μm per slice); one slide was stained with hematoxylin and eosin (H&E) and a consecutive section was used for fluorescence microscopy. For fluorescence microscopy, serial sections were imaged on a Nikon TE 300 microscope system equipped with a mercury excitation source (Chiu Technical Corporation, Kings Park, N.Y.), Orca-ER 12-bit camera (Hamamatsu, Bridgewater, N.J.), and IPLab software (BD Biosciences, Rockville, Md.), using the following excitation and emission filters combinations. To obtain fluorescence images of FM 4-64, the mercury light source was passed through a 540±15 nm BP excitation filter, 700 nm dichroic beam splitter and 720 nm LP emission filter. To obtain fluorescence images of FM 1-43FX and Formula IA, the mercury light source was passed through a 460±25 nm BP excitation filter, 505 nm dichroic beam splitter and a 610±38 nm BP emission filter. Exposure times were adjusted between 5 and 2000 ms for fluorescence images.
For Uptake: Dorsal Root Ganglia in this document: key: +: Positive contrast was concluded if the nerve-to-muscle contrast ratio of FM fluorophore-injected animals was elevated relative to control animals.

SMILES	blue shift of emission maximum in FBS ([1]; FBS compared to DMSO, MeOH or PBS)	Em nm (MeOH) [1]	Em nm (PBS) [1]	Ex nm (MeOH) [1]	Ex nm (PBS) [1]	fluorescence quantum yield, times higher in FBS [2]	Uptake: Trigeminal Ganglia (trigeminal ganglia)	Uptake: Dorsal Root Ganglia (dorsal root ganglia [3])	Uptake: Intervertebral Disc (intervertebral discs; 5 mg/kg mice, 0.5 mg/kg rats IP, 16 hours before imaging, signal normalized to muscle, vs vehicle control)	contrast in the intervertebral discs (intervertebral discs; IP administration to mice and rats)	microscopic localisation of fluorescence in dorsal root ganglion (dorsal root ganglia [4])
CCCCN(CCCC)c1ccc(/C=C/C=C/C=C/c2cc[n+](CCC[N+](CC)(CC)CC)cc2)cc1.[Br-].[Br-] [Formula II, 4-((1 E,3E,5E)-6-(4-(dibutylamino)phenyl)hexa-1,3,5-trienyl)-1-(3-(triethylammonio)propyl)pyridinium dibromide]	over 100 nm	813 nm	808 nm	549 nm	519 nm	10 times	+				
CCCCN(CCCC)c1ccc(/C=C/c2cc[n+](CCC[N+](CC)(CC)CC)cc2)cc1.[Br-].[Br-] [FM 1-43]		624 nm	631 nm	509 nm	493 nm		+	+	+	positive contrast	
CCN(CC)c1ccc(/C=C/C=C/C=C/c2cc[n+](CCC[N+](CC)(CC)CC)cc2)cc1.[Br-].[Br-] [FM 4-64]		811 nm	808 nm	546 nm	507 nm		+	+			significant fluorescence intensity was seen in the dense cellular regions
CCN(CC)c1ccc(/C=C/c2cc[n+](CCC[N+](CC)(CC)CC)cc2)cc1.[Br-].[Br-] [FM 2-10]		622 nm	628 nm	507 nm	490 nm		+				
CCN(CC)c1ccc(C=CC=CC=Cc2cc[n+](CCC[N+](C)(C)C)cc2)cc1.[Br-].[Br-] [FM 5-95]		809 nm	809 nm	542 nm	490 nm		+	+			
